Laboratory results reported in ChEMBL document CHEMBL5537181 (J Med Chem, 2024).
Active and inactive are the calls of the source. The calls are words filed in the database; no cut-off is given here.

How the values were obtained:
[1] = target: Neuronal acetylcholine receptor; alpha3/beta2 (Homo sapiens) (UniProt P17787+P32297); assay: Antagonist activity at human alpha3beta2 nAChR expressed in acetylcholine-induced Xenopus laevis oocytes assessed as inhibition of acetylcholine-induced current at 30 nM by two electrode voltage-clamp assay; assay type: cell-based; conditions: Oocyte
[2] = target: Neuronal acetylcholine receptor; alpha9/alpha10 (Homo sapiens) (UniProt Q9UGM1+Q9GZZ6); assay: Antagonist activity at human alpha9alpha10 nAChR expressed in acetylcholine-induced Xenopus laevis oocytes assessed as inhibition of acetylcholine-induced current at 30 nM at -40 mV holding potential by two electrode voltage-clamp assay; assay type: cell-based; conditions: Oocyte, filed as antagonist

With `CC[C@H](C)[C@H](NC(=O)[C@H](CCCNC(=N)N)NC(=O)[C@H](CCCNC(=N)N)NC(=O)[C@H](Cc1ccc(O)cc1)NC(=O)[C@H](CCCNC(=N)N)NC(=O)[C@H](CCCNC(=N)N)NC(=O)[C@H](CCCNC(=N)N)NC(=O)[C@H](CCCNC(=N)N)NC(=O)[C@H](CC(=O)O)NC(=O)[C@H](Cc1ccc(O)cc1)NC(=O)[C@@H]1CCCN1C(=O)[C@H](CO)NC(=O)[C@H](CCCNC(=N)N)NC(=O)[C@H](Cc1ccc(O)cc1)NC(=O)[C@H](CCCNC(=N)N)NC(=O)CN)C(=O)N[C@H](C(=O)N[C@@H](CC(=O)O)C(N)=O)[C@@H](C)O` the inhibition [1] was “inactive” and the inhibition [2] was “Active”.
